Columns and labels:
mTOR-raptor complex [1] = tested on: T1, mTOR-raptor complex; assay: Coimmunoprecipitation of raptor with mTOR, compound added to cell extracts or immune complexes; assay type: binding; settings: extracts of nontransfected cells
T1 construct: rows headed: amount of endogenous raptor that coimmunoprecipitated with mTOR; other: extracts of nontransfected cells
Procedure: 293T cells were transfected with pcDNA3 alone (Vec.) or with a combination of pcDNA3AU1-mTOR, pcDNA33HA-Raptor, and pcDNA33HA-mLST8. Extracts of the cells were incubated with increasing concentrations of FTS before AU1-mTOR was immunoprecipated. Samples of the immune complexes were incubated with [γ-^32P]ATP and recombinant [His^6]PHAS-I, then subjected to SDS-PAGE and transferred to an immobilon membrane. After obtaining a phosphorimage of the membrane to detect ^32P-PHAS-I, the membrane was immunoblotted with PThr^36/45 antibodies. Other samples of the immune complexes were subjected to SDS-PAGE and immunoblots were prepared with antibodies to the HA epitope or to mTOR (see FIG. 13A). Extracts of nontransfected 293T cells were incubated with increasing concentrations of FTS before mTOR was immunoprecipated with mTAb1. A control immunoprecipitation was conducted using nonimmune IgG (NI). Immune complexes were subjected to SDS-PAGE and immunoblots were prepared with antibodies to mLST8, mTOR, and raptor.
Samples of extracts from 293T cells overexpressing AU1-mTOR, HA-raptor, and HA-mLST8 were incubated for 1 h with increasing concentrations of FTS (●, ▴, ▪) or GTS (∘, Δ, □) before immunoprecipitations were conducted with anti-AU1 antibodies. mTOR kinase activity (●, ∘) was determined by measuring ^32P incorporation into [His^6]PHAS-I in immune complex kinases assays performed with [γ-^32P]ATP (see FIG. 14A). The relative amounts of HA-raptor (▴, Δ) and HA-mLST8 (▪, □) that coimmunoprecipitated with AU1-mTOR were determined after immunoblotting with anti-HA antibodies (see FIG. 14B). The results (mean values+S.E. from 5 experiments) are expressed as percentages of the mTOR activity (FIG. 14A) or coimmunoprecipitating proteins (FIG. 14B) from samples incubated without FTS or GTS, and have been corrected for the amounts of AU1-mTOR immunoprecipitated.
293T cells were transfected with pcDNA3 alone (Vec.) or with a combination of pcDNA3AU1-mTOR, pcDNA33HARaptor, and pcDNA33HA-mLST8. AU1-mTOR was immunoprecipitated and samples of the washed immune complexes were at incubated […] for 30 min with no inhibitors or with the following: caffeine (1 mM), FTS (50 μM), LY294002 (10 μM), rapamycin (1 μM) plus FKBP12 (10 μM), and 1 μM wortmannin. To prevent destruction of wortmannin, incubations were conducted in the absence of thiol reducing agents. Samples of the immune complexes were incubated for 10 min with 10 mM MnCl2, 1 mM [γ-^32P]ATP, and 50 μg/ml [His^6]PHAS-I to assess mTOR activity. Other samples were rinsed twice, subjected to SDS-PAGE, and immunoblotted with anti-HA and anti-AU1 antibodies to determine the amounts of HA-raptor and HA-mLST8 associated with AU1-mTOR. The relative amounts of ^32P incorporated into PHAS-I were determined by phosphorimaging (see FIG. 15B).

mTOR-raptor complex [2] = molecular target: T2, mTOR-raptor complex (Homo sapiens, UniProt P42345+Q8N122); assay: Coimmunoprecipitation of raptor with mTOR from 293T cells incubated with compound; assay type: cell-based; settings: nontransfected 293T cells
T2 construct: expressed in transfected cells; host or cells: 293T
Procedure: (§1) FIG. 11A & 11B represent data showing FTS inhibits PHAS-I phosphorylation and promotes dissociation of the mTOR-raptor complex in 293T cells. 293T cells were transfected with pcDNA3AU1-mTOR, pcDNA33HARaptor, pcDNA33HA-mLST8, and pCMV-Tag3APHAS-I (FIG. 11A). After 18 h the cells were incubated for 1 h with increasing concentrations of FTS before extracts were prepared. A sample of each extract was subjected to SDS-PAGE and immunoblotted to detect PHAS-I or PThr^36/45. AU1-mTOR was also immunoprecipitated from each extract, and immune complexes were subjected to SDSPAGE and immunoblotted with mTAb2, to detect mTOR, and with anti-HA antibodies, to detect HA-mLST8 and HA-raptor. Nontransfected 293T cells were incubated with increasing concentrations of FTS for 1 h before extracts were prepared. mTOR was immunoprecipitated with mTAb1, and samples were subjected to SDS-PAGE.
(§2) FIGS. 12A & 12B represent data showing the effects of incubating cells with increasing concentrations of FTS and GTS on mTOR activity and mTOR association with raptor and mLST8. AU1-mTOR, HA-raptor, and HAmLST8 were overexpressed in 293T cells. The cells were then incubated for 1 h with increasing concentrations of FTS (●, ▴, ▪) or GTS (∘, Δ, □) before extracts were prepared. Immunoprecipitations were then conducted with anti-AU1 antibodies. mTOR kinase activity (●, ∘) was determined by measuring ^32P incorporation into [His^6]PHAS-I in immune complex kinases assays performed with [γ-^32P]ATP. The relative amounts of HA-raptor (▴, Δ) and HA-mLST8 (▪, □) that coimmunoprecipitated with AU1-mTOR were determined after immunoblotting with anti-HA antibodies. The results (mean values±S.E. from 3 experiments) are expressed as percentages of the mTOR activity (FIG. 12A) or coimmunoprecipitating proteins (FIG. 12B) from samples incubated without FTS or GTS, and have been corrected for the amounts of AU1-mTOR immunoprecipitated.
To investigate further the inhibitory effects of FTS on mTOR signaling, the effect of the drug on the association of mTOR, raptor, and mLST8 was determined. AU1-mTOR and HA-tagged forms of raptor and mLST8 were overexpressed in 293T cells, which were then incubated with increasing concentrations of FTS before AU1-mTOR was immunoprecipitated with anti-AU1 antibodies. Immunoblots were prepared with anti-HA antibodies to assess the relative amounts of HA-raptor and HA-mLST8 that coimmunoprecipitated with AU 1-mTOR (FIG. 11A).
Results obtained with overexpressed proteins are not necessarily representative of responses of endogenous proteins. Therefore, experiments were conducted to investigate the effect FTS on the endogenous TORC1 in nontransfected cells. […]

Solubility in buffer = assay type: physicochemical
mTOR-mLST8 = molecular target: T3, mTOR-mLST8 (Homo sapiens, UniProt P42345+Q9BVC4); assay: Coimmunoprecipitation of mLST8 with mTOR from 293T cells incubated with compound; assay type: cell-based; settings: nontransfected 293T cells; much less pronounced than effect on raptor
T3 construct: expressed in transfected cells; host or cells: 293T
Procedure: as §1, §2
To investigate further the inhibitory effects of FTS on mTOR signaling, the effect of the drug on the association of mTOR, raptor, and mLST8 was determined. […]

With `CC(C)=CCC/C(C)=C/CC/C(C)=C/CSc1ccccc1C(=O)O` [FTS, farnesylthiosalicylic acid] the “amount of endogenous raptor that coimmunoprecipitated with mTOR” value (mTOR-raptor complex [1]) was “decreased”, the “amount of endogenous raptor that coimmunoprecipitated with mTOR” value (mTOR-raptor complex [2]) was “markedly decreased” and the solubility in buffer (Solubility in buffer) was “only limited solubility”. The “amount of endogenous mLST8 that coimmunoprecipitated with mTOR” value (mTOR-mLST8) was “also decreased”.

— US20070037887A1, “Blockade of mtor to prevent a hormonal adaptive response” (University of Virginia Patent Foundation, priority 2003, published 2007)
